Assay results from ChEMBL document CHEMBL4229518, “New β-lactam - Tetramic acid hybrids show promising antibacterial activities” (Bioorg Med Chem Lett, 2018).
Converted amounts (≈) assume the structure as drawn. The source made the active and inactive calls. The calls are words filed in the database; no cut-off is given here.

Columns and labels:
Klebsiella pneumoniae [1] = experiment: Antimicrobial activity against Klebsiella pneumoniae isolate SJ 4 after 18 to 20 hrs by microbroth dilution method; type: functional
Bacillus cereus = experiment: Antimicrobial activity against Bacillus cereus ATCC 14579 after 18 to 20 hrs by microbroth dilution method; type: functional
Enterobacter cloacae = experiment: Antimicrobial activity against Enterobacter cloacae ATCC 13047 after 18 to 20 hrs by microbroth dilution method; type: functional; conditions: subsp. cloacae ATCC 13047
Proteus mirabilis = experiment: Antimicrobial activity against Proteus mirabilis ATCC 25933 after 18 to 20 hrs by microbroth dilution method; type: functional
Escherichia coli [2] = experiment: Antimicrobial activity against Escherichia coli isolate SJ 4 after 18 to 20 hrs by microbroth dilution method; type: functional
Escherichia coli [3] = experiment: Antimicrobial activity against Escherichia coli ATCC 25922 after 18 to 20 hrs by microbroth dilution method; type: functional
Bacillus subtilis = experiment: Antimicrobial activity against Bacillus subtilis ATCC 23857 after 18 to 20 hrs by microbroth dilution method; type: functional
Escherichia coli [4] = experiment: Antimicrobial activity against Escherichia coli isolate SJ 5 after 18 to 20 hrs by microbroth dilution method; type: functional
Escherichia coli [5] = experiment: Antimicrobial activity against Escherichia coli BW25113 after 18 to 20 hrs by microbroth dilution method; type: functional
Klebsiella pneumoniae [6] = experiment: Antimicrobial activity against Klebsiella pneumoniae isolate SJ 2 after 18 to 20 hrs by microbroth dilution method; type: functional
Escherichia coli [7] = experiment: Antimicrobial activity against Escherichia coli isolate SJ 2 after 18 to 20 hrs by microbroth dilution method; type: functional
Klebsiella pneumoniae [8] = experiment: Antimicrobial activity against Klebsiella pneumoniae ATCC 33495 after 18 to 20 hrs by microbroth dilution method; type: functional
Escherichia coli [9] = experiment: Antimicrobial activity against Escherichia coli isolate SJ 6 after 18 to 20 hrs by microbroth dilution method; type: functional
Escherichia coli [10] = experiment: Antimicrobial activity against Escherichia coli isolate SJ 3 after 18 to 20 hrs by microbroth dilution method; type: functional
Streptococcus pneumoniae = experiment: Antimicrobial activity against Streptococcus pneumoniae R6 after 18 to 20 hrs by microbroth dilution method; type: functional
Escherichia coli [11] = experiment: Antimicrobial activity against Escherichia coli isolate SJ 1 after 18 to 20 hrs by microbroth dilution method; type: functional
Escherichia coli [12] = experiment: Antimicrobial activity against tolC deficient Escherichia coli JW5503-1 after 18 to 20 hrs by microbroth dilution method; type: functional
Bacillus anthracis = experiment: Antimicrobial activity against Bacillus anthracis Sterne 34F2 after 18 to 20 hrs by microbroth dilution method; type: functional
Pseudomonas aeruginosa = experiment: Antimicrobial activity against Pseudomonas aeruginosa PAO1 after 18 to 20 hrs by microbroth dilution method; type: functional
Klebsiella pneumoniae [13] = experiment: Antimicrobial activity against Klebsiella pneumoniae isolate SJ 5 after 18 to 20 hrs by microbroth dilution method; type: functional
Streptococcus pyogenes = experiment: Antimicrobial activity against Streptococcus pyogenes ATCC 700294 after 18 to 20 hrs by microbroth dilution method; type: functional; conditions: M1 GAS
[14] = test system: Stenotrophomonas maltophilia; experiment: Antimicrobial activity against Stenotrophomonas maltophilia ATCC 700475 after 18 to 20 hrs by microbroth dilution method; type: functional
Staphylococcus aureus [15] = experiment: Antimicrobial activity against methicillin-susceptible Staphylococcus aureus NRS70 after 18 to 20 hrs by microbroth dilution method; type: functional
Escherichia coli [16] = experiment: Antimicrobial activity against Escherichia coli ATCC 35218 expressing TEM-1 beta lactamases after 18 to 20 hrs by microbroth dilution method; type: functional
Klebsiella pneumoniae [17] = experiment: Antimicrobial activity against Klebsiella pneumoniae isolate SJ 1 after 18 to 20 hrs by microbroth dilution method; type: functional
Staphylococcus aureus [18] = experiment: Antimicrobial activity against methicillin-susceptible Staphylococcus aureus ATCC 29213 after 18 to 20 hrs by microbroth dilution method; type: functional
Enterococcus faecalis = experiment: Antimicrobial activity against Enterococcus faecalis ATCC 33186 after 18 to 20 hrs by microbroth dilution method; type: functional
Acinetobacter baumannii = experiment: Antimicrobial activity against Acinetobacter baumannii ATCC 19606 after 18 to 20 hrs by microbroth dilution method; type: functional; conditions: ATCC 19606 = CIP 70.34 = JCM 6841
Klebsiella pneumoniae [19] = experiment: Antimicrobial activity against Klebsiella pneumoniae isolate SJ 3 after 18 to 20 hrs by microbroth dilution method; type: functional
Escherichia coli [20] = experiment: Induction of proton motive force collapse in Escherichia coli BW25113 at 100 uM by flow cytometry; type: functional, organism-based
Vero = experiment: Cytotoxicity against African green monkey Vero cells; type: cell-based; conditions: Chlorocebus sabaeus
HepG2 = experiment: Cytotoxicity against human HepG2 cells; type: cell-based
Staphylococcus aureus [21] = experiment: Potency index, ratio of cefaclor MIC to compound MIC for methicillin-resistant Staphylococcus aureus NRS70; type: functional
Staphylococcus aureus [22] = experiment: Potency index, ratio of […] MIC to compound MIC for methicillin-resistant Staphylococcus aureus NRS70; type: functional
Staphylococcus aureus [23] = experiment: Potency index, ratio of cefaclor MIC to compound MIC for […] Staphylococcus aureus ATCC 29213; type: functional
Staphylococcus aureus [24] = experiment: Potency index, ratio of […] MIC to compound MIC for […] Staphylococcus aureus ATCC 29213; type: functional

Compound	MIC (Klebsiella pneumoniae [1]) [µg/mL]	MIC (Bacillus cereus) [µg/mL]	MIC (Enterobacter cloacae) [µg/mL]	MIC (Proteus mirabilis) [µg/mL]	MIC (Escherichia coli [2]) [µg/mL]	MIC (Escherichia coli [3]) [µg/mL]	MIC (Bacillus subtilis) [µg/mL]	MIC (Escherichia coli [4]) [µg/mL]	MIC (Escherichia coli [5]) [µg/mL]	MIC (Klebsiella pneumoniae [6]) [µg/mL]	MIC (Escherichia coli [7]) [µg/mL]	MIC (Klebsiella pneumoniae [8]) [µg/mL]	MIC (Escherichia coli [9]) [µg/mL]	MIC (Escherichia coli [10]) [µg/mL]	MIC (Streptococcus pneumoniae) [µg/mL]	MIC (Escherichia coli [11]) [µg/mL]	MIC (Escherichia coli [12]) [µg/mL]	MIC (Bacillus anthracis) [µg/mL]	MIC (Pseudomonas aeruginosa) [µg/mL]	MIC (Acinetobacter baumannii) [µg/mL]	further results
CC1(C)S[C@@H]2[C@H](NC(=O)[C@H](N)c3ccccc3)C(=O)N2[C@H]1C(=O)O [AMPICILLIN]	100 (≈ 286 µM)	25 (≈ 71.5 µM)	> 200	< 0.2	> 200	3.13 (≈ 8.96 µM)	< 0.2	> 200	3.13 (≈ 8.96 µM)	25 (≈ 71.5 µM)	> 200	100 (≈ 286 µM)	> 200	> 200	< 0.2	> 200	1.56 (≈ 4.46 µM)	< 0.2	200 (≈ 572 µM)	50 (≈ 143 µM)	MIC (Klebsiella pneumoniae [13]): > 200 µg/mL; MIC (Streptococcus pyogenes): < 0.2 µg/mL; MIC [14]: 6.25 µg/mL (≈ 17.9 µM); MIC (Staphylococcus aureus [15]): 25 µg/mL (≈ 71.5 µM); MIC (Escherichia coli [16]): > 200 µg/mL; MIC (Klebsiella pneumoniae [17]): > 200 µg/mL; MIC (Staphylococcus aureus [18]): < 0.2 µg/mL; MIC (Enterococcus faecalis): 0.78 µg/mL (≈ 2.23 µM); MIC (Klebsiella pneumoniae [19]): 100 µg/mL (≈ 286 µM)
CO[C@@]1(NC(=O)CCCC(=O)C2=C(O)[C@@H](CCCNC(=N)N)NC2=O)C(=O)N2C(C(=O)O)=C(CSc3nnnn3C)CS[C@@H]21	6.25 (≈ 9.58 µM)			6.25 (≈ 9.58 µM)	25 (≈ 38.3 µM)	3.13 (≈ 4.8 µM)		12.5 (≈ 19.2 µM)	6.25 (≈ 9.58 µM)	3.13 (≈ 4.8 µM)	3.13 (≈ 4.8 µM)	6.25 (≈ 9.58 µM)	100 (≈ 153 µM)	3.13 (≈ 4.8 µM)		3.13 (≈ 4.8 µM)	6.25 (≈ 9.58 µM)		> 200	> 200	Activity (Escherichia coli [20]): inactive; IC50 (Vero): > 200 µM; IC50 (HepG2): > 200 µM; MIC (Klebsiella pneumoniae [13]): 12.5 µg/mL (≈ 19.2 µM); MIC (Escherichia coli [16]): 3.13 µg/mL (≈ 4.8 µM); MIC (Klebsiella pneumoniae [17]): 3.13 µg/mL (≈ 4.8 µM); MIC (Klebsiella pneumoniae [19]): 6.25 µg/mL (≈ 9.58 µM)
CC(=O)OCC1=C(C(=O)O)N2C(=O)[C@@H](NC(=O)CCNC(=O)C3=C(O)C(CC(C)C)NC3=O)[C@H]2SC1 (stereo partly specified)		> 200	> 200	200 (≈ 381 µM)			3.13 (≈ 5.97 µM)		> 200			> 200			12.5 (≈ 23.8 µM)		> 200	25 (≈ 47.7 µM)	> 200	> 200	Ratio (Staphylococcus aureus [21]): >=16; Ratio (Staphylococcus aureus [22]): >=16; Ratio (Staphylococcus aureus [23]): >=16; MIC (Streptococcus pyogenes): 12.5 µg/mL (≈ 23.8 µM); MIC [14]: > 200 µg/mL; Ratio (Staphylococcus aureus [24]): >=16; MIC (Staphylococcus aureus [15]): 6.25 µg/mL (≈ 11.9 µM); MIC (Staphylococcus aureus [18]): 6.25 µg/mL (≈ 11.9 µM); MIC (Enterococcus faecalis): 200 µg/mL (≈ 381 µM)
